Data set [1] in a line: Solubility in distilled water for injection. It counts as physicochemical. Conditions: for solubility: component drug, distilled water for injection, 20° C.
A short description of data set [2]: Acute toxicity (LD50) in mice. Conditions: mouse, in vivo, drug. The text has this: The intravenous and oral acute toxicity values (LD50) in mice of each drug-phospholipid complex of this invention were compared with those of the corresponding component drug.
The nature of data set [3]: Blood pressure lowering effect in dogs (Test 2). It counts as in vivo, dog (male mongrel dogs). Conditions: intravenous. The protocol: (§1) The pharmacologic effect of the drug-phospholipid complex according to this invention administered by the intravenous route was compared with that of the component drug administered in the same manner using 10 aminals. Test (1): Antitumor Effect
Test (2): Blood Pressure Lowering Effect
Ten normal male mongrel dogs were intravenously administered with prostaglandin E1 and the blood pressure of each animal was measured using a catheter inserted into the carotid artery of the animal.
The blood pressure lowing ratio was calculated according to the following equation. [formula] wherein P1 represents the blood pressure after the administration and P2 represents that before the administration.

Details of data set [4]: species or system rat (male Wistar). Conditions: rat, in vivo, iv, 1440 min. The text has this: The organ affinity of the drug-phospholipid complex according to this invention was compared with that of the component drug. […] Twenty-four hours after the administration, the degree of retention of the drug in each organ was estimated by determining the radio-activity level.

The nature of data set [5]: Oral route absorption in rats. The arrangement: species or system rat (male Wistar). Conditions: rat, in vivo. The text has this: The oral route absorption of the drug-phospholipid complex according to this invention administered was compared with that of the component drug similarly administered. […] Twenty-four hours after the administration, the degree of retention of the drug in each organ was estimated by determining the radio-activity level.

For data set [6], the system named is L-1210 mouse ascites tumor cells. Description: Antitumor effect, life prolongation in L-1210 inoculated mice (Test 1). It counts as in vivo. The note with it: intravenous, 5 days, BDF1 mice. The protocol:
as §1
Ten male BDF1 mice ([…]) were inoculated with 10^6 cells of L-1210 mouse ascites tumor cells. After 24 hours from the inoculation Sapdicomycin as a drug was administered to the animals for continuous 5 days, and the number of days in which the test animals were dead. The life prolongation ratio was calculated according to the following equation. [formula] wherein A1 represents an average survival period (day) of control group (without administration) and A2 represents that of administered group.

Setting [7] is: intravenous, read-out: Acute Toxicity (LD50), Intravenous Administration, Drug.
Setting [8] is: oral, read-out: Acute Toxicity (LD50), Oral Administration, Drug.

Values after ≈ are worked out from the molar mass of the structure shown. Like-named read-outs stand apart in the source and are kept apart here.

The record followed here is patent publication US4687762A, “Water soluble drug complex and method for production of same” (Green Cross Corporation, priority 1984, dated 1987).

As for `O=c1[nH]cc(F)c(=O)[nH]1` [5-Fluorouracil], the solubility (as a rule, how much of the substance goes into solution per volume) in data set [1] came to 13000 µg/mL (≈ 99900 µM). Also, the LD50 in data set [2] (setting [7]) was 173 mg/kg; in data set [2] (setting [8]), 249 mg/kg.

Compound `COc1ccc2c(c1)c(CC(=O)OCC(=O)O)c(C)n2C(=O)c1ccc(Cl)cc1` [Acemetacin, acemetacin] yielded a solubility in data set [1] of 400 µg/mL (≈ 962 µM).

On to `COc1cccc2c1C(=O)c1c(O)c3c(c(O)c1C2=O)C[C@@](O)(C(=O)CO)C[C@@H]3O[C@H]1C[C@H](N)[C@H](O)[C@H](C)O1` [Adriamycin, adriamycin], for which, in data set [1], the concentration in solution (solubility) was 7000 µg/mL (≈ 12900 µM). Moreover, the LD50 in data set [2] (setting [7]) came to 9.1 mg/kg; in data set [2] (setting [8]), 737 mg/kg.

In data set [1], `COc1cccc2c1C(=O)c1c(O)c3c(c(O)c1C2=O)C[C@@](O)(C(C)=O)C[C@@H]3O[C@H]1C[C@H](N)[C@H](O)[C@H](C)O1` [Daunomycin, daunomycin] returned a solubility of 20000 µg/mL (≈ 37900 µM). The LD50 in data set [2] (setting [7]) turned out to be 23.5 mg/kg; in data set [2] (setting [8]), 271 mg/kg.

Compound `C[C@@H]1C[C@H]2[C@@H]3CCC4=CC(=O)C=C[C@]4(C)[C@@]3(F)[C@@H](O)C[C@]2(C)[C@@]1(O)C(=O)CO` [Dexamethasone, dexamethasone] yielded a solubility in data set [1] of 50 µg/mL (≈ 127 µM).

In data set [1], `CC(C(=O)O)c1ccc(-c2ccccc2)c(F)c1` (centres unmarked) [Flurbiprofen, flurbiprofen] yielded a solubility of 150 µg/mL (≈ 614 µM).

As for `CCCCC[C@H](O)/C=C/[C@H]1[C@H](O)CC(=O)[C@@H]1CCCCCCC(=O)O` [Prostaglandin E1, prostaglandin E1], in data set [1], the solubility is 70 µg/mL (≈ 197 µM). The “Blood pressure lowering ratio, Drug” value was determined as 4.8% in data set [3] (0.25 mg/kg), 7.7% in data set [3] (0.5 mg/kg) and 10.5% in data set [3] (1.0 mg/kg). The LD50 in data set [2] (setting [8]) came out at 7570 mg/kg.

As to spadicomycin, the “Solubility, Component Drug” value in data set [1] (water) came out at 55000 µg/mL. For the same compound, in data set [4], the “Retention in kidney, Drug” value was 129 dpm per Gram Organ Weight; the “Retention in liver, Drug” value is 585 dpm per Gram Organ Weight; the “Retention in tumor, Drug” value came out at 3800 dpm per Gram Organ Weight; the “Retention in whole blood, Drug” value stood at 825 dpm per Gram Organ Weight. Besides, the “Absorption Rate, Drug” value in data set [5] was 2.0%. The “Antitumor effect (life prolongation ratio), Drug” value in data set [6] (2.5 mg/kg) is on record as 19%. The “Antitumor effect (life prolongation ratio), Drug” value in data set [6] (5.0 mg/kg) came out at 25%. In data set [6] (10.0 mg/kg), the “Antitumor effect (life prolongation ratio), Drug” value was 50%.
